For assay [1], the system named is C57BL/6J mice at 20 months of age (Old Mice, OM). The assay can be described thus: Tissue weights of soleus and gastrocnemius muscle, age-induced muscle loss. Type of assay: in vivo. The following applies: after 4 months administration by gavage, vs OM group. As to the method:
(§1) The healthy and male C57BL/6J mice at 20 months of age (Old Mice, OM) and at 2 months of age (Young Mice, YM) were maintained under the barrier conditions in a temperature-controlled environment and fed a commercial mouse chow. They were divided into the following five groups: (1) non-supplement young mice group (YM, n=5); (2) non-supplement old mice group (OM, n=5); (3)L-Ergothioneine supplement group with low dosage (OM+5 mg/kg/day, n=5); (4) L-Ergothioneine supplement group with moderate dosage (OM+15 mg/kg/day, n=5); and(5) L-Ergothioneine supplement group with high dosage (OM+45 mg/kg/day, n=5). All mice were administered L-Ergothioneine for once daily by gavage in normal saline solution for 4 months. Mice were euthanized by CO2 inhalation followed by cervical dislocation at the end of study and skeletal muscles were excised for an immediate isolation of mitochondria. FIGS. 1A-1D show the test results related to effect of EGT treatment on age-induced muscle loss in mice monthly, particularly regarding body weight measurement (FIG. 1A), lean mass ratio (FIG. 1B), tissue weights of soleus muscle (FIG. 1C), and tissue weights of gastrocnemius muscle (FIG. 1D). Statistical significance was determined using one-way ANOVA followed by Tukey's post hoc test (N=5, *P<0.05, **P<0.01, vs OM Group).

For assay [2] the test system is unchanged. The assay can be described thus: Motor coordination on rotating rod (Time to Fall). The following applies: once daily by gavage for 4 months, vs OM group. Type of assay: in vivo. As for the experimental part:
as §1, with “Motor coordination deficits were performed by placing” for “FIGS. 1A-1D show”, “mouse on a rotating rod (Beijing Zhishuduobao, DB093) and measuring how long it takes before mice fall off the rod (Time” for “test results related”, “Fall (s)). […]” for “effect of EGT treatment on age-induced muscle loss in mice monthly, particularly regarding body weight measurement (FIG. 1A), lean mass ratio (FIG. 1B), tissue weights of soleus muscle (FIG. 1C), and tissue weights of gastrocnemius muscle (FIG. 1D).”

Assay [3] has the same test system. The assay can be described thus: Forelimb grip strength (grip strength meter). Type of assay: in vivo. Particulars: once daily by gavage for 4 months, vs OM group. As to the method:
as §1, with “Forelimb grip strength were analyzed using” for “FIGS. 1A-1D show”, “rip strength meter (Bioseb, BIO-GS3) with mouse-specific wire grid (100×80 mm, angled 90° (vertical)), once per month during the study and at the end” for “test results related to effect”, “the study. […]” for “EGT treatment on age-induced muscle loss in mice monthly, particularly regarding body weight measurement (FIG. 1A), lean mass ratio (FIG. 1B), tissue weights of soleus muscle (FIG. 1C), and tissue weights of gastrocnemius muscle (FIG. 1D).”, “**P<0.01, ***P<0.001” for “**P<0.01,”

The subject of assay [4] is skeletal muscles mitochondria. The assay can be described thus: ATP production, O2 consumption and P/O ratio in skeletal muscle mitochondria from treated mice. Format: in vivo, C57BL/6J mice. The following applies: isolated skeletal muscle mitochondria of old mice treated for 4 months, vs OM group. As to the method: as §1, with “Extracting skeletal muscles mitochondria from mice to measure ATP production and O2 consumption. ATP production was measured using a luciferase/luciferin based system. O2 consumption was measured using optical spectra. The all data were analyzed to identify” for “FIGS. 1A-1D show”, “L-Ergothioneine function for improving ATP production” for “test results related to effect of EGT treatment on age-induced muscle loss in mice monthly, particularly regarding body weight measurement (FIG. 1A), lean mass ratio (FIG. 1B), tissue weights of soleus muscle (FIG. 1C),”, “O2 consumption. […]” for “tissue weights of gastrocnemius muscle (FIG. 1D).”, “**P<0.01, ***P<0.001” for “**P<0.01,”

Assay [5] in a line: Body weight and body composition (lean mass ratio) of old mice. Format: in vivo, C57BL/6J mice. Particulars: old mice, 5, 15 or 45 mg/kg/day by gavage for 4 months, vs OM group. As for the experimental part: as §1, with “The bodyweight of C57BL/6 mice was recorded before treatment, once per week during” for “FIGS. 1A-1D show”, “study, and at the end” for “test results related to effect”, “the study. Body composition (lean mass ratio) of” for “EGT treatment on age-induced muscle loss in”, “was analyzed using the (NM42-[…]-1 system, Suzhou Niumag) before treatment, once per month during the study, and at the end” for “monthly, particularly regarding body weight measurement (FIG. 1A), lean mass ratio (FIG. 1B), tissue weights”, “the study. […]” for “soleus muscle (FIG. 1C), and tissue weights of gastrocnemius muscle (FIG. 1D).”

Each structure is given as a SMILES string.

Regarding `C[N+](C)(C)[C@@H](Cc1c[nH]c(=S)[nH]1)C(=O)[O-]` [L-Ergothioneine], in assay [1], the “weight of the gastrocnemius muscle” value is reported as “prevented this reduction” and the “weight of the soleus muscle” value is given as “prevented this reduction”. Further, the “time on rotating rod (Time to Fall)” value in assay [2] is given as “prolong time of maintain on a rotating rod”. Further, the forelimb grip strength result in assay [3] was “ameliorating and preventing the loss of muscle grip strength”. In assay [4], the ATP synthesis entry is “increase of ATP synthesis”; the “P/O ratio (ATP produced per O2 consumed)” value is “increase of ATP synthesis and P/O ratio”. For the same compound, in assay [5], the “body composition (lean mass ratio)” value was “no significant difference” and the body weight entry is recorded as “no significant difference”.

These data come from patent US20240082219A1, “METHODS FOR AMELIORATING AND PREVENTING AGE-RELATED MUSCLE DEGENERATION” (NANJING NUTRABUILDING BIO-TECH CO., LTD., priority 2021, published 2024).
